Measured values: ChEMBL document CHEMBL5649169 (ChemMedChem, 2018)

Assays:
[1] = target: Multifunctional protein CAD (Homo sapiens) (UniProt P27708); also: assay method not described here
[2] = target: Ras GTPase-activating-like protein IQGAP1 (Homo sapiens) (UniProt P46940); also: assay method not described here
[3] = target: Dual specificity mitogen-activated protein kinase kinase 5 (Homo sapiens) (UniProt Q13163); also: assay method not described here
[4] = target: cGMP-dependent protein kinase 1 (Homo sapiens) (UniProt Q13976); also: assay method not described here
cGMP-dependent protein kinase 1 (Homo sapiens), sequence (Q13976 whole entry): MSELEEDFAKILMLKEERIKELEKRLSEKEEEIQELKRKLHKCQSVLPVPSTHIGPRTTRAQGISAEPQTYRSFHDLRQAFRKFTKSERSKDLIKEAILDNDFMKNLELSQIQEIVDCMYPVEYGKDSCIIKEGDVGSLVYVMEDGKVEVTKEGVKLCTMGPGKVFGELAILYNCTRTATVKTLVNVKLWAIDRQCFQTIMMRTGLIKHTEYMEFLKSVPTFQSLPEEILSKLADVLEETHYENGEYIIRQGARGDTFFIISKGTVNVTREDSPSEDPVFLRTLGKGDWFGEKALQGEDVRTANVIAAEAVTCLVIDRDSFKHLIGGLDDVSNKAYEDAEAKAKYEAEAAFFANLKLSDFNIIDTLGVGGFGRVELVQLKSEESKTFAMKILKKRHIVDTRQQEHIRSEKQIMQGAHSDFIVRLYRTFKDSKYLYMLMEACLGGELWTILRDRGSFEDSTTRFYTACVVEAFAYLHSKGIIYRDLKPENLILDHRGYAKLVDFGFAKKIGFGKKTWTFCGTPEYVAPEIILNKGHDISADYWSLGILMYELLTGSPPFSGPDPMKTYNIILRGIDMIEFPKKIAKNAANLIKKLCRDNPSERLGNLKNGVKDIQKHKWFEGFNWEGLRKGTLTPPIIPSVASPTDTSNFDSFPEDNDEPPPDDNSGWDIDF

[5] = target: Receptor-type tyrosine-protein kinase FLT3 (Homo sapiens) (UniProt P36888); also: assay method not described here
[6] = target: Microtubule cross-linking factor 3 (Homo sapiens) (UniProt Q5TF21); also: assay method not described here
[7] = target: Eukaryotic translation initiation factor 2A (Homo sapiens) (UniProt Q9BY44); also: assay method not described here
[8] = target: Ubiquitin-like FUBI-ribosomal protein eS30 fusion protein (Homo sapiens) (UniProt P62861); also: assay method not described here
[9] = target: Rho guanine nucleotide exchange factor 2 (Homo sapiens) (UniProt Q92974); also: assay method not described here
[10] = target: Small ribosomal subunit protein uS19 (Homo sapiens) (UniProt P62841); also: assay method not described here
[11] = target: WD repeat-containing protein 1 (Homo sapiens) (UniProt O75083); also: assay method not described here
WD repeat-containing protein 1 (Homo sapiens), sequence (O75083 whole entry): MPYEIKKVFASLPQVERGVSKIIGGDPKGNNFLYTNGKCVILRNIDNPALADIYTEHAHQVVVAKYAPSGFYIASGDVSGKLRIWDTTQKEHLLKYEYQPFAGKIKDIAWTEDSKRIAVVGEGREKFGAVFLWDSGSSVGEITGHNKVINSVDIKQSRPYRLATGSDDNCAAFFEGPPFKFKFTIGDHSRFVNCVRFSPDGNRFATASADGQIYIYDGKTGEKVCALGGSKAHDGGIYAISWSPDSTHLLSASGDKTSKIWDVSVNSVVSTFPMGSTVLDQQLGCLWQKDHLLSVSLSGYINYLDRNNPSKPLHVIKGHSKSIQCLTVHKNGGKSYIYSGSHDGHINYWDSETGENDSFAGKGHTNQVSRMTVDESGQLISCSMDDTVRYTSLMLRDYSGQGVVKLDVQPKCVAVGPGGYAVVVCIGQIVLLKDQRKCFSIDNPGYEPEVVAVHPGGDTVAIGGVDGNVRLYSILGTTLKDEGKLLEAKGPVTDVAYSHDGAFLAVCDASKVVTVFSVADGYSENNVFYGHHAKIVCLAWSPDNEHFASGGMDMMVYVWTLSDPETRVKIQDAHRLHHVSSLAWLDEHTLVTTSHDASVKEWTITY

[12] = target: ATP-dependent RNA helicase DDX24 (Homo sapiens) (UniProt Q9GZR7); also: assay method not described here
[13] = target: Mitogen-activated protein kinase kinase kinase 2 (Homo sapiens) (UniProt Q9Y2U5); also: assay method not described here
[14] = target: Peroxiredoxin-4 (Homo sapiens) (UniProt Q13162); also: assay method not described here
[15] = target: Ephrin type-A receptor 1 (Homo sapiens) (UniProt P21709)
[16] = target: CDGSH iron-sulfur domain-containing protein 2 (Homo sapiens) (UniProt Q8N5K1); also: assay method not described here
[17] = target: Proteasome Macropain subunit (Homo sapiens) (UniProt P49721); also: assay method not described here
[18] = target: GTPase-activating protein and VPS9 domain-containing protein 1 (Homo sapiens) (UniProt Q14C86); also: assay method not described here
[19] = target: Cullin-associated NEDD8-dissociated protein 1 (Homo sapiens) (UniProt Q86VP6); also: assay method not described here
[20] = target: RNA-binding protein 3 (Homo sapiens) (UniProt P98179); also: assay method not described here
RNA-binding protein 3 (Homo sapiens), sequence (P98179 whole entry): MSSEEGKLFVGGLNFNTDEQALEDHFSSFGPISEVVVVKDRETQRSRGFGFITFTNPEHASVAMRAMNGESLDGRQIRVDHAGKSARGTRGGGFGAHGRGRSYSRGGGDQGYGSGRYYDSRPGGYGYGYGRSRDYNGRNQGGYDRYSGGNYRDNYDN

[21] = target: Eukaryotic translation initiation factor 5B (Homo sapiens) (UniProt O60841); also: assay method not described here
[22] = target: Importin subunit alpha-1 (Homo sapiens) (UniProt P52292); also: assay method not described here
[23] = target: Mitogen-activated protein kinase kinase kinase kinase 5 (Homo sapiens) (UniProt Q9Y4K4); also: assay method not described here
[24] = target: Serine/threonine-protein kinase Nek2 (Homo sapiens) (UniProt P51955); also: assay method not described here
Serine/threonine-protein kinase Nek2 (Homo sapiens), sequence (P51955 whole entry): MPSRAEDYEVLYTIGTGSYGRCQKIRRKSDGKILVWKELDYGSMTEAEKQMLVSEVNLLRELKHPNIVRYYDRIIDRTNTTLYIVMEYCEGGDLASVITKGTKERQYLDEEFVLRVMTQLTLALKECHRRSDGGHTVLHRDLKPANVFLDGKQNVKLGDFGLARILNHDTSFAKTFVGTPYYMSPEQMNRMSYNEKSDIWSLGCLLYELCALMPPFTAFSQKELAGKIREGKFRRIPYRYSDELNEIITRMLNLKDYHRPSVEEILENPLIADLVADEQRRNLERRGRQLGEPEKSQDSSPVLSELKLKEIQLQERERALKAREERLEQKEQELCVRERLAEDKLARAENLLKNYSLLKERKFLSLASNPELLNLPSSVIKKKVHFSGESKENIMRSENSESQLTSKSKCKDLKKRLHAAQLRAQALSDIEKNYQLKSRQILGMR

[25] = target: Centromere/kinetochore protein zw10 homolog (Homo sapiens) (UniProt O43264); also: assay method not described here
[26] = target: Serine/threonine-protein phosphatase 2A 55 kDa regulatory subunit B alpha isoform (Homo sapiens) (UniProt P63151); also: assay method not described here
Serine/threonine-protein phosphatase 2A 55 kDa regulatory subunit B alpha isoform (Homo sapiens), sequence (P63151 whole entry, canonical isoform): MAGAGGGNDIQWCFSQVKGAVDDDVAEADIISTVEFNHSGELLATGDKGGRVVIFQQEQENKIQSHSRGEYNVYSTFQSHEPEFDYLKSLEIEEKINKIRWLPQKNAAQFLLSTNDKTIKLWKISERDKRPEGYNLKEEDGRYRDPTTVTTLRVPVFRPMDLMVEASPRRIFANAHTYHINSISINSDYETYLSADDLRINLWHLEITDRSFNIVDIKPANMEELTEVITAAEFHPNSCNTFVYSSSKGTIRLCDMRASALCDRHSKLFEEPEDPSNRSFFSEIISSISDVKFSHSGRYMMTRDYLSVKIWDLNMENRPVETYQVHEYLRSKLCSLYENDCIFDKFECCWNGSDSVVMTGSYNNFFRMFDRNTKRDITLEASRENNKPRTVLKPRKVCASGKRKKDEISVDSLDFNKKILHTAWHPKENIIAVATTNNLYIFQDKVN

[27] = target: Peptidyl-prolyl cis-trans isomerase FKBP1A (Homo sapiens) (UniProt P62942); also: assay method not described here
Peptidyl-prolyl cis-trans isomerase FKBP1A (Homo sapiens), sequence (P62942 whole entry): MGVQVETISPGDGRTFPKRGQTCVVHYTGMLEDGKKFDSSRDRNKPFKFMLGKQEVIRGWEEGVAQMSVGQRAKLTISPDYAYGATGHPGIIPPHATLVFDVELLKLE

[28] = target: Actin-related protein 2/3 complex subunit 3 (Homo sapiens) (UniProt O15145); also: assay method not described here
[29] = target: Carboxymethylenebutenolidase homolog (Homo sapiens) (UniProt Q96DG6); also: assay method not described here
[30] = target: Phosphorylase b kinase gamma catalytic chain, liver/testis isoform (Homo sapiens) (UniProt P15735); also: assay method not described here
Phosphorylase b kinase gamma catalytic chain, liver/testis isoform (Homo sapiens), sequence (P15735 whole entry, canonical isoform): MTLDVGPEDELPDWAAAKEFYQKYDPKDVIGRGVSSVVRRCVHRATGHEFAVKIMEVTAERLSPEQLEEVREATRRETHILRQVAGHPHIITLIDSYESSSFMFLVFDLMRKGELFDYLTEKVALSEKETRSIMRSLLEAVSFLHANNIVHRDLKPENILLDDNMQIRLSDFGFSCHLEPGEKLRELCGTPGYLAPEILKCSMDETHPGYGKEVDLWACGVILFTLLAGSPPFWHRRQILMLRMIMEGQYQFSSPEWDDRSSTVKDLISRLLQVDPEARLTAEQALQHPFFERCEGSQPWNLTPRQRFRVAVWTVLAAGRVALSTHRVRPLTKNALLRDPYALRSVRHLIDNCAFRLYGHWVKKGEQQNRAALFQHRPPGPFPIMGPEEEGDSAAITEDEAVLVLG

[31] = target: 3-beta-hydroxysteroid-Delta(8),Delta(7)-isomerase (Homo sapiens) (UniProt Q15125); also: assay method not described here
[32] = target: Thioredoxin-dependent peroxide reductase, mitochondrial (Homo sapiens) (UniProt P30048); also: assay method not described here
Thioredoxin-dependent peroxide reductase, mitochondrial (Homo sapiens), sequence (P30048 whole entry): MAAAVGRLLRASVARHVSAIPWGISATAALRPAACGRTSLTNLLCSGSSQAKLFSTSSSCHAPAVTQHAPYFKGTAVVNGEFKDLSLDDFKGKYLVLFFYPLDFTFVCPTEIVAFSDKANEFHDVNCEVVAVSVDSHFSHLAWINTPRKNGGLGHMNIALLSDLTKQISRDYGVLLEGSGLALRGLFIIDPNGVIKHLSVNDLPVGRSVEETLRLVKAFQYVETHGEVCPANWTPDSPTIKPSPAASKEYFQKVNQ

[33] = target: GPI-anchor transamidase (Homo sapiens) (UniProt Q92643); also: assay method not described here
GPI-anchor transamidase (Homo sapiens), sequence (Q92643 whole entry): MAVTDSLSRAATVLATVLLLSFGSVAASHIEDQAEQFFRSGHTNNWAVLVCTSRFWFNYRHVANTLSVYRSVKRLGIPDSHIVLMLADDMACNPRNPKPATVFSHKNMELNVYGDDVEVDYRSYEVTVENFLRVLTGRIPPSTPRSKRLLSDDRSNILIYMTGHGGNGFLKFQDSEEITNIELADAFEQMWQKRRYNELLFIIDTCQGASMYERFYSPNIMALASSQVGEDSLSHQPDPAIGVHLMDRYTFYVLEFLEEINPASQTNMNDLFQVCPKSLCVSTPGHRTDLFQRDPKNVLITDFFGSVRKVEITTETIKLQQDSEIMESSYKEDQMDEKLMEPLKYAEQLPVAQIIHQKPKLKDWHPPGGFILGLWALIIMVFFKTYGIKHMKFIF

[34] = target: Small ribosomal subunit protein eS24 (Homo sapiens) (UniProt P62847); also: assay method not described here
[35] = target: Ephrin type-B receptor 4 (Homo sapiens, UniProt P54760); assay type: cell-based, HEK293T
[36] = target: Ephrin type-A receptor 1 (Homo sapiens, UniProt P21709); assay: Inhibition of Nano Luc-fused full length C-terminal EPHA1 (unknown origin) expressed in HEK293T cells using NanoGlo as substrate incubated for 2 hrs in presence of tracer by NanoBRET assay; assay type: cell-based
[37] = target: Ephrin type-B receptor 6 (Homo sapiens) (UniProt O15197); also: assay method not described here
Ephrin type-B receptor 6 (Homo sapiens), sequence (O15197 whole entry): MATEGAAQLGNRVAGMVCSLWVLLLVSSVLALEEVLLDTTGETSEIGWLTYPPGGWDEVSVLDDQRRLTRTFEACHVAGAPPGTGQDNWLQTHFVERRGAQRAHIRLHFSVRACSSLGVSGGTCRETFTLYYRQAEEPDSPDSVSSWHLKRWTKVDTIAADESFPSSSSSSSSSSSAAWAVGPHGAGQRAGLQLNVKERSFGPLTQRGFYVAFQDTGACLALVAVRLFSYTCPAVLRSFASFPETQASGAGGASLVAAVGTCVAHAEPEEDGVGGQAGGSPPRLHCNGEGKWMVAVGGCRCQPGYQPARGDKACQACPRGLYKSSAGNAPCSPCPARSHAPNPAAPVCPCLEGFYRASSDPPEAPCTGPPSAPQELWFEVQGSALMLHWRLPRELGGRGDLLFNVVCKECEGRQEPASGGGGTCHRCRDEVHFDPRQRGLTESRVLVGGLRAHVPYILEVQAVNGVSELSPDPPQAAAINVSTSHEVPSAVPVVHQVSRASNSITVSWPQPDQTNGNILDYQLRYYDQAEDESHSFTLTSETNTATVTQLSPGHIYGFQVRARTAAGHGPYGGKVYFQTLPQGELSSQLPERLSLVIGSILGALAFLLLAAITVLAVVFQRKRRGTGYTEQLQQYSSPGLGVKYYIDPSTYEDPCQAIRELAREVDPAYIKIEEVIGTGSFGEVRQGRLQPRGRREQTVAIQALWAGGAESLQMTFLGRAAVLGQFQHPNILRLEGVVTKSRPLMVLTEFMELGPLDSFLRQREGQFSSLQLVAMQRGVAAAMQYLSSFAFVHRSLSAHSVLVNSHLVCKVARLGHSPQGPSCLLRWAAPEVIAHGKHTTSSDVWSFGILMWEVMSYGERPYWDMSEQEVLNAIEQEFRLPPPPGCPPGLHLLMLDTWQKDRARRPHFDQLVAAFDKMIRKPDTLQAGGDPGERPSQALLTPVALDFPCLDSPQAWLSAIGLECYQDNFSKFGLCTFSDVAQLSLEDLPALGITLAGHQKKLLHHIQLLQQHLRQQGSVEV

[38] = target: Large ribosomal subunit protein uL1 (Homo sapiens) (UniProt P62906); also: assay method not described here
[39] = target: Zinc finger CCCH domain-containing protein 11A (Homo sapiens) (UniProt O75152); also: assay method not described here
[40] = target: UV excision repair protein RAD23 homolog B (Homo sapiens) (UniProt P54727); also: assay method not described here
UV excision repair protein RAD23 homolog B (Homo sapiens), sequence (P54727 whole entry): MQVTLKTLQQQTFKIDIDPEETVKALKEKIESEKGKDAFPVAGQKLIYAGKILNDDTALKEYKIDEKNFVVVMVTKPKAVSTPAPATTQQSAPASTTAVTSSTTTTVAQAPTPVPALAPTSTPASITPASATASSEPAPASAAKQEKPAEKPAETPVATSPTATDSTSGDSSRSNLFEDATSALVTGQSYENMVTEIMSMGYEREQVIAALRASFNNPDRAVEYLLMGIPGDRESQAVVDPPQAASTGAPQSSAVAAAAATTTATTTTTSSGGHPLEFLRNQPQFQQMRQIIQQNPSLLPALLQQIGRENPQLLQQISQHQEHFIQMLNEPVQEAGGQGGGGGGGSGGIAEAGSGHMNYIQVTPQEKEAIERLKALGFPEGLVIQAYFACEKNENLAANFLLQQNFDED

[41] = target: DNA topoisomerase 2-beta (Homo sapiens) (UniProt Q02880); also: assay method not described here
[42] = target: Protein diaphanous homolog 1 (Homo sapiens) (UniProt O60610); also: assay method not described here
[43] = organism: Homo sapiens; also: assay method not described here
[44] = target: Translocator protein (Homo sapiens) (UniProt P30536); also: assay method not described here
[45] = target: Lamin-B2 (Homo sapiens) (UniProt Q03252); also: assay method not described here
For ED50 in this document: assay method not described here.

SMILES: Cc1ccc(C(=O)Nc2cccc(C(F)(F)F)c2)cc1Nc1nc(-c2cccnc2)nc2c1cnn2C
- ED50 [1]: 2.65 nM
- ED50 [2]: 4700 nM
- ED50 [3]: 5940 nM
- ED50 [4]: 2.46 nM
- ED50 [5]: 5.14 nM
- ED50 [6]: 11900 nM
- ED50 [7]: 25700 nM
- ED50 [8]: 562 nM
- ED50 [9]: 9510 nM
- ED50 [10]: 4040 nM
- ED50 [11]: 2690 nM
- ED50 [12]: 2990 nM
- ED50 [13]: 100 nM
- ED50 [14]: 2730 nM
- ED50 [15]: 64 nM
- ED50 [16]: 3100 nM
- ED50 [17]: 3310 nM
- ED50 [18]: 7360 nM
- ED50 [19]: 110 nM
- ED50 [20]: 13500 nM
- ED50 [21]: 41800 nM
- ED50 [22]: 7330 nM
- ED50 [23]: 5170 nM
- ED50 [24]: 11 nM
- ED50 [25]: 2900 nM
- ED50 [26]: 3680 nM
- ED50 [27]: 94000 nM
- ED50 [28]: 3470 nM
- ED50 [29]: 671 nM
- ED50 [30]: 144 nM
- ED50 [31]: 14.8 nM
- ED50 [32]: 164 nM
- ED50 [33]: 3430 nM
- ED50 [34]: 357 nM
- IC50 [35]: 3 nM
- IC50 [36]: 303 nM
- ED50 [37]: 364 nM
- ED50 [38]: 577 nM
- ED50 [39]: 149 nM
- ED50 [40]: 2.59 nM
- ED50 [41]: 3180 nM
- ED50 [42]: 5.21 nM
- ED50 [43]: 3420 nM
- ED50 [44]: 103 nM
- ED50 [45]: 257000 nM

SMILES: Cc1ccc(C(=O)Nc2cccc(C(F)(F)F)c2)cc1Nc1nc(-c2cccnc2)nc2nn(C)cc12
- ED50 [1]: 4.48 nM
- ED50 [2]: 35.4 nM
- ED50 [3]: 1.01 nM
- ED50 [4]: 4940 nM
- ED50 [5]: 16700 nM
- ED50 [6]: 5.26 nM
- ED50 [7]: 38.6 nM
- ED50 [8]: 12400 nM
- ED50 [9]: 48.4 nM
- ED50 [10]: 14.9 nM
- ED50 [11]: 81.7 nM
- ED50 [12]: 100 nM
- ED50 [13]: 9440 nM
- ED50 [14]: 30.5 nM
- ED50 [15]: 4580 nM
- ED50 [16]: 59.1 nM
- ED50 [17]: 53.6 nM
- ED50 [18]: 9470 nM
- ED50 [19]: 1740 nM
- ED50 [20]: 9450 nM
- ED50 [21]: 383000 nM
- ED50 [22]: 5.66 nM
- ED50 [23]: 13400 nM
- ED50 [24]: 324 nM
- ED50 [25]: 54.4 nM
- ED50 [26]: 377 nM
- ED50 [27]: 5.68 nM
- ED50 [28]: 66.6 nM
- ED50 [29]: 56.1 nM
- ED50 [30]: 18.1 nM
- ED50 [31]: 12.3 nM
- ED50 [32]: 4560 nM
- ED50 [33]: 83.9 nM
- ED50 [34]: 314 nM
- IC50 [35]: 1660 nM
- IC50 [36]: 16800 nM
- ED50 [37]: 6140 nM
- ED50 [38]: 8920 nM
- ED50 [39]: 3880 nM
- ED50 [40]: 14900 nM
- ED50 [41]: 732000 nM
- ED50 [42]: 1440 nM
- ED50 [43]: 545 nM
- ED50 [44]: 23.8 nM
- ED50 [45]: 1630 nM
